In PMC9544318, “Advanced Pyrrolidine‐Carbamate Self‐Immolative Spacer with Tertiary Amine Handle Induces Superfast Cyclative Drug Release” (Chemmedchem, 2022):

Experiments:
Type in all cases: physicochemical
[1] = Carbamate cleavage study of SI spacer-CPT modules (CPT release by HPLC); settings: for half-life at 1 mM: CPT release by HPLC, read-out: carbamate half-life (t1/2) (converted)
Excerpt: We undertook the structural optimization of the pyrrolidine‐carbamate SI spacer Sp2, aimed at decreasing the carbamate half‐life (t 1/2) for a faster hydroxy cargo release. The molecular structures of the synthesized SI spacers are reported in Figure 2 (all synthetic procedures are reported in the Supporting Information). Here, the Sp2 pyrrolidine ring was replaced by either a piperidine (in Sp4) or an isoxazolidine (in Sp5) cycle. In particular, Sp4 was designed to assess the impact of the cyclic amine ring size on the SI spacer degradation.[20] On the other hand, the use of an isoxazolidine ring in Sp5 aimed at evaluating the contribution of the “α‐effect” to the spacer reactivity.[21] While Sp4 was prepared starting from racemic 2‐piperidinecarbaldehyde, the synthesis of Sp5 was inspired by Bode's route to 5‐oxaproline.[22] Moreover, as we recently observed the inhibitory effects on the spacer cyclization given by a phosphate monoester group,[23] we devised the SI spacer modification with a basic handle. Since at physiological pH (approximately 7.4) the pyrrolidine is mostly present as protonated species, a second amine handle may force the pyrrolidine deprotonation, thus lowering its pK a value and increasing its nucleophilic character.[24] To this end, SI spacers Sp3 and Sp6/8 were endowed with a tertiary amine handle connected either at the carbamate N atom (in Sp3 and Sp7) or at the pyrrolidine ring (in Sp6 and Sp8). While the former spacers were rapidly obtained by reductive amination of Boc‐L‐prolinal, the latter were prepared by multistep synthesis, starting from oxygenated proline derivatives, such as 4‐oxo‐L‐proline and hydroxyproline. Firstly, the exocyclic secondary amine of SI spacers Sp3/8 was conjugated to the tertiary hydroxy group of the anticancer drug Camptothecin (CPT) via carbamate bond. As described recently,[19, 23] the final spacer‐drug modules Sp3/8‐CPT (Figure 2) were isolated as trifluoroacetate salts. These compounds were dissolved in a DMSO/phosphate buffer (pH 7.5) mixture and incubated at 37 °C, followed by aliquot collection at different time points and CPT release analysis by HPLC. The percentage of intact carbamate calculated from peak integrals was plotted versus time, and the spacer cyclization rates were estimated in terms of carbamate half‐life (t 1/2).
Carbamate Cleavage Studies
Experimental Procedure for Sp-CPT Modules
Stock solutions of lyophilized SI spacer-CPT modules (concentration: 10 mM in DMSO) were diluted 1:10 (final concentration: 1 mM) with 25 mM phosphate buffer (pH 7.4). Immediately after preparation, the mixtures were incubated at 37 °C. Aliquots were collected at different time points and diluted 1:4 (final concentration: 250 μ M) with a blocking buffer (8:2 H2O/CH3CN + 0.2% TFA).
The diluted aliquots were injected into an analytical HPLC-PDA system (see Materials and Methods), using the following parameters: […]
Gradient From 10% B to 50% B in 26 min.
Areas under the curve (AUC) of the detected peaks were measured using software associated to the HPLC systems. The rate of free OH release from the starting carbamate were obtained by calculating the relative ratios of AUC values corresponding to the amine -bearing prodrug and the free payload. Data were plotted versus time and half-lives (t1/2) were calculated by non -linear fitting (exponential, one-phase decay) using GraphPad Prism software .
(1 picture or pasted object on this page, not shown here)

[2] = CPT release under acidic conditions (acetate buffer, pH 5) mimicking the lysosomal compartment; settings: for carbamate stability under acidic conditions: compared with pH 7.5
Procedure: [26] The release of free CPT was also studied upon Sp2-CPT and Sp3-CPT incubation under more acidic conditions (acetate buffer, pH 5), mimicking the lysosomal compartment.

[3] = Solubility observed in aqueous buffer/DMSO mixture of the release study
Procedure: [25] The stability of carbamate Sp4-CPT may be ascribed to a suboptimal conformation of the piperidine spacer compared to the native pyrrolidine. […] The stability of Sp5-CPT was also analysed in a phosphate buffer solution at pH 7.5, with DMSO content increased to 20 % DMSO.

[4] = DMSO/phosphate buffer (pH 7.5), 37 °C

CC[C@@]1(OC(=O)N(C)C[C@@H]2CCCN2)C(=O)OCc2c1cc1n(c2=O)Cc2cc3ccccc3nc2-1 [Sp2-CPT, reference compound]
half-life at 1 mM [1, 4]: 3.6 h
carbamate stability under acidic conditions [2]: much more stable

CC[C@@]1(OC(=O)N(CCN(C)C)C[C@@H]2CCCN2)C(=O)OCc2c1cc1n(c2=O)Cc2cc3ccccc3nc2-1 [Sp3-CPT]
half-life compared with reference Sp2-CPT [1, 4]: four times shorter
half-life at 1 mM [1, 4]: 0.9 h
drug release activity under acidic conditions ([2]; compared with Sp2 reference): consistently higher drug release activity than the Sp2 reference
carbamate stability under acidic conditions [2]: much more stable

CC[C@@]1(OC(=O)N(C)C[C@@H]2CCON2)C(=O)OCc2c1cc1n(c2=O)Cc2cc3ccccc3nc2-1 [Sp5-CPT]
solubility ([3]; 9 : 1 aqueous buffer/DMSO mixture, pH 7.5): partially insoluble
solubility ([3]; phosphate buffer pH 7.5, DMSO content increased to 20 %): perfectly soluble
cyclative carbamate cleavage (CPT release) [1, 4]: complete inhibition of the cyclative carbamate cleavage
CPT release ([1]; phosphate buffer pH 7.5, 20 % DMSO): no CPT release was observed

CC[C@@]1(OC(=O)N(C)C[C@@H]2C[C@H](N(C)C)CN2)C(=O)OCc2c1cc1n(c2=O)Cc2cc3ccccc3nc2-1 [Sp6-CPT]
half-life at 1 mM [1, 4]: 5.5 h

CC[C@@]1(OC(=O)N(CCCN(C)C)C[C@@H]2CCCN2)C(=O)OCc2c1cc1n(c2=O)Cc2cc3ccccc3nc2-1 [Sp7-CPT]
half-life at 1 mM [1, 4]: 3.3 h

CC[C@@]1(OC(=O)N(C)C[C@@H]2C[C@@H](OCCN(C)C)CN2)C(=O)OCc2c1cc1n(c2=O)Cc2cc3ccccc3nc2-1 [Sp8-CPT]
half-life at 1 mM [1, 4]: 3.2 h
